Laboratory results: patent US5738858A, “Skin care compositions containing fatty hydroxyethyl imidazoline surfactants and retinol or retinyl ester” (priority 1996, dated 1998)

How the values were obtained:
[1] = test system: ARAT; assay: In vitro microsomal esterification of retinol, ARAT catalyzed (retinyl palmitate formation); conditions: Table 2, 1 hour, 37° C.
Description: (§4) A solution containing 0.1M sodium phosphate pH 7 buffer, 5 mM dithiothreitol, 2 mg/ml bovine serum albumin, 40 micromolar palmitoyl CoA, 40 micromolar dilauroyl phosphatidyl choline, 10 micromolar retinol and a test compound or solvent blank, was incubated for 1 hour at 37° C. with a microsomal fraction isolated from bovine retinal pigment epithelial cells. After incubation, the reaction was quenched by addition of an equal volume of ethanol, and the retinyl esters formed (retinyl palmitate from the ARAT catalyzed reaction, and retinyl laurate from the LRAT catalyzed reaction) were extracted with hexane.

[2] = target: T1, LRAT (Bos taurus, UniProt Q9BGL2); assay: In vitro microsomal esterification of retinol, LRAT catalyzed (retinyl laurate formation); format: biochemical, bovine; conditions: Table 2, 1 hour, 37° C.
T1 construct: microsomal fraction isolated from bovine retinal pigment epithelial cells; from tissue; host or cells: microsomes of bovine retinal pigment epithelial cells (method cited: Saari and Bredberg, J. Biol. Chem. 1988)
T1 sequence (Q9BGL2 1-230): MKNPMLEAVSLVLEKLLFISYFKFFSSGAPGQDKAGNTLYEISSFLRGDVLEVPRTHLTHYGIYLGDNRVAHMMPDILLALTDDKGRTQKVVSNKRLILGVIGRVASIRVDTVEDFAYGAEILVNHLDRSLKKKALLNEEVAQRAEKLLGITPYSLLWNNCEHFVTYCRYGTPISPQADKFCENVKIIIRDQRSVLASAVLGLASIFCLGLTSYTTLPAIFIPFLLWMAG
Description: as §4

[3] = test system: keratinocyte differentiation (TGase 1); assay: Transglutaminase (TGase 1) ELISA, keratinocyte differentiation (Example 4); format: cell-based, human; conditions: used alone; Table 4
Description: (§1) Human keratinocytes, isolated from neonatal foreskin by trypsin treatment were grown in Dulbecco Modification Eagle (DME) Hams F12 (1:1) medium/10% fetal calf serum in the presence of irradiated 3T3 mouse fibroblasts for establishing dividing keratinocyte colonies. Cells were grown under the above condition until their second passage and kept frozen for future use. Frozen second passage keratinocytes were thawed and plated into the above medium and grown for five days before they were switched to a serum-free MCDB 153-based medium keratinocyte growth medium (KGM) from Clonetics Corporation, San Diego, Calif., containing 0.15 mM Ca, or keratinocyte serum-free media (KSFM) from GIBCO containing 0.09 mM Ca). On day 7, when the cells were 80-90% confluent, they were trypsinized and plated in the serum-free medium for the various experiments.
During the process of terminal differentiation in the epidermis, a 15 nm thick layer of protein, known as the cornified envelope (CE) is formed on the inner surface of the cell periphery. The CE is composed of numerous distinct proteins which have been cross-linked together by the formation of N ^ε -(γ-glutamyl) lysine isodipeptide bonds catalyzed by the action of at least two different transglutaminases (TGases) expressed in the epidermis. TGase 1 is expressed in abundance in the differentiated layers of the epidermis, especially the granular layer, but is absent in the undifferentiated basal epidermis. […]
(§2) Keratinocytes (cultured as described above) were plated in 96 well plates at a density of 3,000 cells per well in 2000 μl of cell culture media. […] The absorbance of samples was read at 492 nm in the plate reader. […] Transglutaminase I levels were determined by subtracted background from the readings from each treatment and determining the mean s.d. for the replicates exposed to both antibodies.
(§3) The level of TGase-1 detected after treatment of the cells could be influenced by cell number, i.e., the greater the number of cells the greater the level of TGase-1 detected. […]

[4] = test system: keratinocyte differentiation (TGase 1); assay: Transglutaminase (TGase 1) ELISA normalized to DNA, keratinocyte differentiation (Example 1B); format: cell-based, human; conditions: […]10^-7 to […]10^-9 M; vs ethanol control
Description: as §1, with “experiments. […]” for “experiments.”
as §2, with “200” for “2000”, “μl” for “μl of cell culture”, “TGase” for “Transglutaminase I”, “subtracting” for “subtracted”, “mean±s.d.” for “the mean s.d.”, “Ab.” for “antibodies.”
as §3

[5] = test system: keratinocyte proliferation; assay: 3H-Thymidine incorporation / keratinocyte proliferation (Example 1A); format: cell-based, human; conditions: […]10^-7 to […]10^-9 M; vs ethanol control and retinol treatments

SMILES	% INHIB. ARAT ([1]; 100 μM)	keratinocyte differentiation (in words) [3]	other results
Nc1ncnc2nc[nH]c12 [adenine]	0%		
CCCCCCCC/C=C\CCCCCCCC(=O)NCCC[N+](C)(C)CC(=O)[O-] [oleamidopropyl betaine]			% INHIB. LRAT ([2]; 100 μM): 0%
CCCCCCCCCCCCCCCC(=O)OC/C=C(C)/C=C/C=C(C)/C=C/C1=C(C)CCCC1(C)C [RP, retinyl palmitate]		did not affect keratinocyte differentiation when used alone	
CCCCCCCCCCCC(=O)N(C)CC(=O)O [lauroyl sarcosine]	20%		
CC1=C(/C=C/C(C)=C/C=C/C(C)=C/CO)C(C)(C)CCC1 [ROH, retinol]		did not affect keratinocyte differentiation when used alone	keratinocyte differentiation / transglutaminase level (in words) [4]: The decrease in transglutaminase level was dose dependent
O=C1C(N(CO)C(=O)NCO)N(CO)C(=O)N1CO (stereo not shown) [diazolidinyl urea]			% INHIB. ARAT ([1]; 0 μM as printed): 0%; % INHIB. LRAT ([2]; 0 μM as printed): 0%
N[C@@H](Cc1c[nH]c2ccccc12)C(=O)O [tryptophan]	0%		
O=c1cc[nH]c(=O)[nH]1 [uracil]	0%		
Cc1ncc(C[n+]2csc(CCO)c2C)c(N)n1 [thiamine]	0%		
CC1=C(/C=C/C(C)=C/C=C/C(C)=C/C(=O)O)C(C)(C)CCC1 [RA, retinoic acid]		substantially decreased keratinocyte differentiation	keratinocyte proliferation (in words) [5]: significantly increased keratinocyte proliferation over both the ethanol control and each of the 2.5×10^-7 M, 2.5×10^-8 M and 2.5×10^-9 M retinol treatments and they did so in a dose dependant manner
